Where two headings read alike, the source gives them in different places.
Key:
Type in all cases: in vivo
[1] = test system: Red Spider Mite (Tetranychus kanzawai); assay: B.9 Red spider mite, sprayed cowpea beans; conditions: 72 h, read-out: mortality in comparison with untreated controls
Experimental: B.9 Red Spider Mite (Tetranychus kanzawai)
The active compound was dissolved at the desired concentration in a mixture of 1:1 (vol:vol) distilled water:acetone. Add surfactant (Kinetic HV) was added at a rate of 0.01% (vol/vol).The test solution was prepared at the day of use.
Potted cowpea beans of 4-5 days of age were cleaned with tap water and sprayed with 1-2 ml of the test solution using air driven hand atomizer. The treated plants were allowed to air dry and afterwards inoculated with 30 or more mites by clipping a cassava leaf section from rearing population. Treated plants were placed inside a holding room at about 25-27° C. and about 50-60% relative humidity. Percent mortality was assessed 72 hours after treatment.

[2] = test system: Diamond back moth (Plutella xylostella); assay: B.1 Diamond back moth, cabbage leaf dip; conditions: foliar, 72 h, read-out: mortality in comparison with untreated controls
Experimental: B.1 Diamond back moth (Plutella xylostella)
The active compound was dissolved at the desired concentration in a mixture of 1:1 (vol:vol) distilled water:acetone. Surfactant (Kinetic HV) was added at a rate of 0.01% (vol/vol). The test solution was prepared at the day of use.
Leaves of cabbage were dipped in test solution and air-dried. Treated leaves were placed in petri dishes lined with moist filter paper and inoculated with ten 3rd instar larvae. Mortality was recorded 72 hours after treatment. Feeding damages were also recorded using a scale of 0-100%.

[3] = test system: Diamond back moth (Plutella xylostella); assay: CE.6 Diamond back moth, contact activity, comparative test; conditions: read-out: % mortality in comparison to untreated controls
Experimental: (§1) The tables show % mortality in comparison to untreated controls.
CE.6 Diamond Back Moth (Plutella xylostella)
Ten third-instar larvae are sprayed with 1 ml test solution and introduce to untreated leaves held petri dished lined with moist filter paper. Mortality is recorded 24, 72, and 120 hours after treatment.

[4] = test system: Rice Green Leafhopper (Nephotettix virescens); assay: B.8 Rice green leafhopper, sprayed rice seedlings; conditions: 72 h, read-out: mortality in comparison with untreated controls
Experimental: B.8 Rice Green Leafhopper (Nephotettix virescens)
(§2) Rice seedlings were cleaned and washed 24 hours before spraying. The active compounds were formulated in 1:1 acetone:water (vol:vol), and 0.01% vol/vol surfactant (Kinetic HV) was added. Potted rice seedlings were sprayed with 5-6 ml test solution, air dried, covered with Mylar cages and inoculated with 10 adults. Treated rice plants were kept at about 28-29° C. and relative humidity of about 50-60%. Percent mortality was recorded after 72 hours.

[5] = test system: Green Peach Aphid (Myzus persicae); assay: B.2 Green peach aphid, artificial diet, systemic; conditions: 72 h, read-out: mortality in comparison with untreated controls
Text: B.2 Green Peach Aphid (Myzus persicae)
For evaluating control of green peach aphid (Myzus persicae) through systemic means the test unit consisted of 96-well-microtiter plates containing liquid artificial diet under an artificial mem brane.
The compounds were formulated using a solution containing 75% v/v water and 25% v/v DMSO. Different concentrations of formulated compounds were pipetted into the aphid diet, using a custom built pipetter, at two replications.
After application, 5-8 adult aphids were placed on the artificial membrane inside the microtiter plate wells. The aphids were then allowed to suck on the treated aphid diet and incubated at about 23±1° C. and about 50±5% relative humidity for 3 days. Aphid mortality and fecundity was then visually assessed.

[6] = test system: Orchid Thrips (Dichromothrips Corbetti); assay: B.7 Orchid thrips, floral immersion; conditions: Thrips, 72 h, read-out: mortality in comparison with untreated controls
Experimental: B.7 Orchid Thrips (Dichromothrips Corbetti)
Dichromothrips corbetti adults used for bioassay were obtained from a colony maintained continuously under laboratory conditions. For testing purposes, the test compound is diluted in a 1:1 mixture of acetone:water (vol:vol), plus Kinetic HV at a rate of 0.01% v/v.
Thrips potency of each compound was evaluated by using a floral-immersion technique. All petals of individual, intact orchid flowers were dipped into treatment solution and allowed to dry in Petri dishes. Treated petals were placed into individual re-sealable plastic along with about 20 adult thrips. All test arenas were held under continuous light and a temperature of about 28° C. for duration of the assay. After 3 days, the numbers of live thrips were counted on each petal. The percent mortality was recorded 72 hours after treatment.

[7] = test system: Boll Weevil (Anthonomus grandis); assay: B.5 Boll weevil, insect diet with eggs; conditions: 120 h, read-out: mortality in comparison with untreated controls
Experimental: B.5 Boll Weevil (Anthonomus grandis)
For evaluating control of boll weevil (Anthonomus grandis) the test unit consisted of 96-well-microtiter plates containing an insect diet and 5-10 A. grandis eggs.
The compounds were formulated using a solution containing 75% v/v water and 25% v/v DMSO. Different concentrations of formulated compounds were sprayed onto the insect diet at 5 μl, using a custom built micro atomizer, at two replications.
After application, microtiter plates were incubated at about 25±1° C. and about 75±5% relative humidity for 5 days. Egg and larval mortality was then visually assessed.

[8] = test system: Green Soldier Stink Bug (Nezara viridula); assay: B.11 Green soldier stink bug, sprayed soybean pods; conditions: 120 h, read-out: mortality in comparison with untreated controls
Experimental: B.11 Green Soldier Stink Bug (Nezara viridula)
The active compound was dissolved at the desired concentration in a mixture of 1:1 (vol:vol) distilled water:acetone. Surfactant (Kinetic HV) was added at a rate of 0.01% (vol/vol). The test solution was prepared at the day of use. Soybean pods were placed in glass Petri dishes lined with moist filter paper and inoculated with ten late 3rd instar N. viridula. Using a hand atomizer, approximately 2 ml solution is sprayed into each Petri dish. Assay arenas were kept at about 25° C. Percent mortality was recorded after 5 days.

[9] = test system: Vetch Aphid (Megoura viciae); assay: B.3 Vetch aphid, broad bean leaf disks; conditions: foliar, 120 h, read-out: mortality in comparison with untreated controls
Experimental: B.3 Vetch Aphid (Megoura viciae)
For evaluating control of vetch aphid (Megoura viciae) through contact or systemic means the test unit consisted of 24-well-microtiter plates containing broad bean leaf disks.
The compounds were formulated using a solution containing 75% v/v water and 25% v/v DMSO. Different concentrations of formulated compounds were sprayed onto the leaf disks at 2.5 μl, using a custom built micro atomizer, at two replications.
After application, the leaf disks were air-dried and 5-8 adult aphids placed on the leaf disks inside the microtiter plate wells. The aphids were then allowed to suck on the treated leaf disks and incubated at about 23±1° C. and about 50±5% relative humidity for 5 days. Aphid mortality and fecundity was then visually assessed.

[10] = test system: Tobacco Budworm (Heliothis virescens); assay: B.4 Tobacco budworm, insect diet with eggs; conditions: 120 h, read-out: mortality in comparison with untreated controls
Experimental: B.4 Tobacco Budworm (Heliothis virescens)
For evaluating control of tobacco budworm (Heliothis virescens) the test unit consisted of 96-well-microtiter plates containing an insect diet and 15-25 H. virescens eggs.
The compounds were formulated using a solution containing 75% v/v water and 25% v/v DMSO. Different concentrations of formulated compounds were sprayed onto the insect diet at 10 μl, using a custom built micro atomizer, at two replications.
After application, microtiter plates were incubated at about 28±1° C. and about 80±5% relative humidity for 5 days. Egg and larval mortality was then visually assessed.

[11] = test system: Cowpea Aphid (Aphis Craccivora); assay: CE.1 Cowpea aphid, comparative test; conditions: read-out: % mortality in comparison to untreated controls; for mortality at 300 ppm: sprayed cowpea plants
Experimental: as §1
CE.1 Cowpea Aphid (Aphis Craccivora)
Potted cowpea plants colonized with approximately 100-150 aphids of various stages were sprayed after the pest population has been recorded. Population reduction was assessed after 24, 72, and 120 hours.

[12] = test system: Rice Green Leafhopper (Nephotettix virescens); assay: CE.5 Rice green leafhopper, comparative test; conditions: read-out: % mortality in comparison to untreated controls
Experimental: as §1
CE.5 Rice Green Leafhopper (Nephotettix virescens)
as §2, with “50:50” for “1:1”, “0.1%” for “0.01%”, “(EL 620)” for “(Kinetic HV)”, “5” for “5-6”, “placed in” for “covered with Mylar”

[13] = test system: Neotropical Brown Stink Bug (Euschistus heros); assay: B.12 Neotropical brown stink bug, dipped pole bean; conditions: 120 h, read-out: mortality in comparison with untreated controls
Experimental: B.12 Neotropical Brown Stink Bug (Euschistus heros)
For evaluating control of Euschistus heros through contact the test unit consisted of 100 ml disposable plastic beakers with transparent lids.
The compounds were formulated using a solution containing 50% water and 50% acetone. 50 ml of different concentrations of formulated compounds or mixtures were prepared in a glass petri dish and used for dipping three 6 cm sections of fresh pole bean. Each treatment was replicated eight times.
After application, the pole bean sections were air-dried and 5 adult E. heros placed in each beaker. The E. heros were then allowed to suck on the treated pole bean sections and incubated at 23±1° C., 50±5% RH for 5 days. E. heros mortality was then visually assessed.

[14] = test system: Rice Brown Plant Hopper (Nilaparvata lugens); assay: CE.2 Rice brown plant hopper, comparative test; conditions: 10 ppm, after 72 hours, read-out: % mortality in comparison to untreated controls
Experimental: as §1
CE.2 Rice Brown Plant Hopper (Nilaparvata lugens)
as §2, with “50:50” for “1:1”, “(vol:vol)” for “(vol:vol),”, “0.1%” for “0.01%”, “(EL 620)” for “(Kinetic HV)”, “5” for “5-6”, “placed in” for “covered with Mylar”

[15] = test system: Orchid Thrips (Dichromothrips Corbetti); assay: CE.3 Orchid thrips, comparative test; conditions: 96 h, 10 ppm, after 4 days, read-out: % mortality in comparison to untreated controls
Experimental: as §1
CE.3 Orchid Thrips (Dichromothrips Corbetti)
Dichromothrips corbetti adults used for bioassay were obtained from a colony maintained continuously under laboratory conditions. For testing purposes, the test compound was diluted to a concentration of 300 ppm (wt compound: vol diluent) in a 1:1 mixture of acetone:water (vol:vol), plus 0.01% vol/vol Kinetic® surfactant.
Thrips potency of each compound was evaluated by using a floral-immersion technique. Plastic petri dishes were used as test arenas. All petals of individual, intact orchid flowers were dipped into treatment solution and allowed to dry. Treated flowers were placed into individual petri dishes along with 10-15 adult thrips. The petri dishes were then covered with lids. All test arenas were held under continuous light and a temperature of about 280C for duration of the assay. After 4 days, the numbers of live thrips were counted on each flower, and along inner walls of each petri dish. The level of thrips mortality was extrapolated from pre-treatment thrips numbers.

## CCN1C(=O)C[C@@H](NC(=O)c2ccc(C3=NO[C@@](c4cc(Cl)c(F)c(Cl)c4)(C(F)(F)F)C3)cc2Cl)C1=O [Compound I-1-21]
[1]
  mortality at 300 ppm: > 75%
[2]
  mortality at 300 ppm: > 75%
[3]
  mortality at 0.1 ppm: 97%
[4]
  mortality at 300 ppm: > 75%
[5]
  mortality at 2500 ppm: > 75%
[6]
  mortality at 300 ppm: > 75%
[7]
  mortality at 2500 ppm: > 75%
[8]
  mortality at 300 ppm: > 75%
[9]
  mortality at 2500 ppm: > 75%
[10]
  mortality at 2500 ppm: > 75%

## Cc1cc(C2=NOC(c3cc(Cl)c(F)c(Cl)c3)(C(F)(F)F)C2)ccc1C(=O)N[C@@H]1CC(=O)N(C)C1=O (stereo partly shown) [Compound I-1-27]
[1]
  mortality at 300 ppm: > 75%
[2]
  mortality at 300 ppm: > 75%
[11]
  mortality at 10 ppm: 93%
[3]
  mortality at 0.1 ppm: 100%
[4]
  mortality at 300 ppm: > 75%
[5]
  mortality at 2500 ppm: > 75%
[6]
  mortality at 300 ppm: > 75%
[7]
  mortality at 2500 ppm: > 75%
[8]
  mortality at 300 ppm: > 75%
[9]
  mortality at 2500 ppm: > 75%
[10]
  mortality at 2500 ppm: > 75%
[12]; 72 h
  mortality at 3 ppm: 83%

## Cc1cc(C2=NOC(c3cc(Cl)cc(Cl)c3)(C(F)(F)F)C2)ccc1C(=O)N[C@@H]1CC(=O)N(C)C1=O (stereo partly shown) [Compound I-1-28]
[1]
  mortality at 300 ppm: > 75%
[2]
  mortality at 300 ppm: > 75%
[11]
  mortality at 10 ppm: 50%
[4]
  mortality at 300 ppm: > 75%
[5]
  mortality at 2500 ppm: > 75%
[13]
  mortality at 500 ppm: > 75%
[6]
  mortality at 300 ppm: > 75%
[7]
  mortality at 2500 ppm: > 75%
[8]
  mortality at 300 ppm: > 75%
[9]
  mortality at 2500 ppm: > 75%
[10]
  mortality at 2500 ppm: > 75%
[12]; 72 h
  mortality at 3 ppm: 79%

## Cc1cc(C2=NSC(c3cc(Cl)cc(Cl)c3)(C(F)(F)F)C2)ccc1C(=O)NC1CCN(CC(F)(F)F)C1=O (stereo not shown) [No. 2-195 of WO 2013/092943, reference compound]
[14]
  mortality at 10 ppm: 25%
[11]
  mortality at 300 ppm: 0%
[15]
  mortality at 10 ppm: 0%
[12]; 3 ppm, after 72 hours
  mortality at 3 ppm: 0%

## Cc1cc(C2=NSC(c3cc(Cl)cc(Cl)c3)(C(F)(F)F)C2)ccc1C(=O)NC1CCN(C)C1=O (stereo not shown) [No. 2-201 of WO 2013/092943]
[14]
  mortality at 10 ppm: 0%
[11]
  mortality at 300 ppm: 0%
[12]; 3 ppm, after 72 hours
  mortality at 3 ppm: 0%

## CN1CCC(NC(=O)c2ccc(C3=NOC(c4cc(Cl)c(F)c(Cl)c4)(C(F)(F)F)C3)c3c2CCC3)C1=O (stereo not shown) [Tab. 126, A-9 of WO 2015128358, reference compound]
[3]
  mortality at 0.1 ppm: 0%

## CCN1CCC(NC(=O)c2ccc(C3=NOC(c4cc(Cl)c(F)c(Cl)c4)(C(F)(F)F)C3)c3c2CCC3)C1=O (stereo not shown) [Tab. 127, A-9 of WO 2015128358, reference compound]
[3]
  mortality at 0.1 ppm: 0%
